Measurements: patent US9249157B2, “Tricyclic heterocycle compounds” (BRISTOL-MYERS SQUIBB COMPANY, priority 2012, dated 2016)

Tests used:
human Notch 3 = assay: Notch-CBF1 Transactivation Assay (Notch 3); type: cell-based; settings: HeLa cells transfected with truncated Notch 3 and CBF1 luciferase reporter; 18 hours incubation
Source text: Notch-CBF1 Transactivation Assay
The Notch-CBF1 (C-promoter binding factor I) cell based transactivation assay is based on the ability of the released Notch intracellular domain fragments (NICDs) to function as transcription factors in conjunction with CBF1 and other nuclear factors. Luciferase assays were used to measure the antagonism of Notch-CBF1 transcriptional activity. HeLa cervical cancer cells are transiently co-transfected with pCDNA3.1/Hygro plasmids containing truncated Notch 1, Notch 2, Notch 3, or Notch 4 receptors and a PGL3 luciferase reporter vector containing 4 copies of CBF1 binding site. The cells were then tested for Notch-CBF1 activity in the absence or presence of test compounds. HeLa cells, maintained in DMEM (high glucose with HEPES), 1× glutamine/penicillin/streptomycin and 10% Fetal Bovine serum, were transiently transfected in a T175 Flask (4.5×10^6 cells/flask) using the Monster Transfection Kit (Minis #MIR2906) according to manufacturers specifications. Table 1 denotes respective DNA quantity for the transfections.
Six hours post-transfection, cells were trypsinized and plated into a 384-well black Poly-D-lysine coated tissue culture plate at a density of 5×10^3 cells/well in 95 μL assay media (DMEM (high glucose with HEPES), 1× glutamine/penicillin/streptomycin, 0.0125% BSA, 1× non-essential amino acids). Assay media (5 μL) containing test compounds in final concentrations ranging from 5 μM to 8.4×10^−5 μM (3 fold serial dilutions) were added to the cells and the cell plates were then incubated for 18 hours at 37° C. and 5% CO2. Control wells contained DMSO vehicle (total counts) or 0.5 μM of an in-house small molecule inhibitor (background counts). Duplicates were used for each sample. Luciferase activity was measured after a 20-minute incubation with 50 μl STEADY-GLO® luciferase reagents according to manufacturer's specifications (Promega, Cat. #E2550) and analyzed by Envision plate reader (PerkinElmer, Boston, Mass.).
The antagonist effect of compounds was expressed as 100×[1−(average sample−average background)/(average total−average background)] where sample is the luciferase activity in the presence of test compound, background is equal to the luciferase activity in the presence of the small molecule inhibitor control and the total is signal induced in DMSO wells.

TALL1 = assay: Human Tumor Xenograft Models in Mice, TALL1; type: in vivo; settings: 60 mg/kg, QDx10, oral administration; LCK = Log Cell Kill
Source text: Human Tumor Xenograft Models in Mice
All rodents were obtained from Harlan Sprague Dawley Co. (Indianapolis, Ind.), and maintained in an ammonia-free environment in a defined and pathogen—free colony. All mice were quarantined approximately 1 week prior to their use for tumor propagation and drug efficacy testing. Mice were fed food and water ad libitum. The animal care program of Bristol-Myers Squibb Pharmaceutical Research Institute is fully accredited by the American Association for Accreditation of Laboratory Animal Care (AAALAC). All experiments were performed in accordance with Bristol-Myers Squibb (BMS) animal test methods and guidelines. […]
The required numbers of animals needed to detect a meaningful response were pooled at the start of the experiment and each was given a subcutaneous implant of a tumor fragment (˜20 mg) with a 13-gauge trocar. Tumors were allowed to grow to the pre-determined size window (tumors outside the range were excluded) and animals were evenly distributed to various treatment and control groups. […]
Tumor response was determined by measurement of tumors with a caliper twice a week, until the tumors reached a predetermined “target” size of 0.5 gm or 1 gm depending on the tumor type. […]
Tumor response criteria are expressed in terms of tumor growth inhibition (% TGI). […] For this purpose, the tumor weight of a group is expressed as […] tumor weight (MTW). […]

[1] = High Throughput Metabolic Stability Panel, human microsomes; type: in vitro ADME; settings: 10 minute incubation, 0.5 μM, control compound expected range
Procedure: (§1) High Throughput (HT) Metabolic Stability Panel
(§2) The metabolic stability assay evaluated CYP-mediated metabolic stability in vitro using human, rat, mouse, dog, and/or monkey microsomes after a ten-minute incubation. Each compound was tested in duplicate.
(§3) Test compound was received as a 3.5 mM stock solution in 100 percent DMSO. The test compound was diluted to create a 50 μM acetonitrile (ACN) solution containing 1.4% DMSO, which was then used as a 100× stock for incubation with microsomes. Each compound was tested in duplicate separately in each of three species in the Metabolic Stability-Human, Rat, and Mouse assay suite or as individual species in the Metabolic Stability-Dog or Metabolic Stability-Monkey suites. Compound, NADPH, and liver microsome solutions were combined for incubation in three steps:
(§4) 1. 152 μl of liver microsome suspension, protein concentration of 1.1 mg/ml in 100 mM NaPi, pH 7.4, 5 mM MgCl2 buffer, was pre-warmed at 37° C.
(§5) 3. The reaction was initiated by the addition of 17 μl of pre-warmed 10 mM NADPH solution in 100 mM NaPi, pH 7.4.
(§6) The reaction components were mixed well, and 75 μl of the reaction mixture was immediately transferred into 150 μl quench/stop solution (zero-time point, T0). Reactions were incubated at 37° C. for 10 minutes and then an additional 75 μl aliquot was transferred into 150 μl quench solution. […]

[2] = High Throughput Metabolic Stability Panel, rat microsomes; type: in vitro ADME; settings: 10 minute incubation, 0.5 μM, control compound expected range
Procedure: as §1, §2, §3, §4, §5, §6

[3] = High Throughput Metabolic Stability Panel, mouse microsomes; type: in vitro ADME; settings: 10 minute incubation, 0.5 μM, control compound expected range
Procedure: as §1, §2, §3, §4, §5, §6

[4] = High Throughput Metabolic Stability Panel, dog microsomes; type: in vitro ADME; settings: 10 minute incubation, 0.5 μM, control compound expected range
Procedure: as §1, §2, §3, §4, §5, §6

[5] = High Throughput Metabolic Stability Panel, monkey microsomes; type: in vitro ADME; settings: 10 minute incubation, 0.5 μM, control compound expected range
Procedure: as §1, §2, §3, §4, §5, §6

| Compound | IC50 (human Notch 3) [nM] | Antitumor Activity TALL1 (LCK) (TALL1) | Average Percent Remaining ± SD, Human [1] [%] | Average Percent Remaining ± SD, Rat [2] [%] | Average Percent Remaining ± SD, Mouse [3] [%] | Average Percent Remaining ± SD, Dog [4] [%] | Average Percent Remaining ± SD, Monkey [5] [%] |
| --- | --- | --- | --- | --- | --- | --- | --- |
| CCC[C@H](C(N)=O)[C@@H](CCC(F)(F)F)C(=O)N[C@H]1N=C(c2ccccc2)c2cccc3c2N(CCO3)C1=O [Example 7, (2R,3S)—N-((6S)-5-Oxo-8-phenyl-2,3,5,6-tetrahydro[1,4]oxazino[2,3,4-jk][1,4]benzodiazepin-6-yl)-3-propyl-2-(3,3,3-trifluoropropyl)succinamide] | 14.8 | 0.7 |  |  |  |  |  |
| CCc1nn(CCCN2CCN(c3cccc(Cl)c3)CC2)c(=O)n1CCOc1ccccc1 [Nefazodone] |  |  | 0.4 ± 0.4 | 0.7 ± 0.6 | 0.4 ± 0.3 | 0.4 ± 0.4 | 0.6 ± 0.5 |
